Source: PubChem BioAssay (NCI)
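Tested at 5 concentrations; 48 h exposure; 96-well plates; endpoints linearly interpolated, else capped at highest concentration. GI50 = concentration required for 50% inhibition of growth. The concentration for full growth arrest is given as TGI.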

Experiments:
Experiment in all cases: growth of human tumour cells (NCI), 48 h
SF-295 CNS = test system: SF-295 CNS
HCC-2998 colon = test system: HCC-2998 colon
KM20L2 colon = test system: KM20L2 colon
NCI-H460 lung = test system: NCI-H460 lung
RPMI-8226 leukemia = test system: RPMI-8226 leukemia
UACC-62 melanoma = test system: UACC-62 melanoma
HOP-92 NSCLC = test system: HOP-92 NSCLC
SW-620 colon = test system: SW-620 colon
SNB-19 CNS = test system: SNB-19 CNS
NCI-H522 lung = test system: NCI-H522 lung
HOP-18 NSCLC = test system: HOP-18 NSCLC
HOP-62 NSCLC = test system: HOP-62 NSCLC
OVCAR-4 ovarian = test system: OVCAR-4 ovarian
RXF 393 renal = test system: RXF 393 renal
ACHN renal = test system: ACHN renal
K-562 leukemia = test system: K-562 leukemia
M14 melanoma = test system: M14 melanoma
SF-539 CNS = test system: SF-539 CNS
NCI-H23 lung = test system: NCI-H23 lung
SNB-75 CNS = test system: SNB-75 CNS
LOX IMVI melanoma = test system: LOX IMVI melanoma
A549 NSCLC = test system: A549 NSCLC
M19-MEL melanoma = test system: M19-MEL melanoma
SK-OV-3 ovarian = test system: SK-OV-3 ovarian
OVCAR-8 ovarian = test system: OVCAR-8 ovarian
DLD-1 colon = test system: DLD-1 colon
UO-31 renal = test system: UO-31 renal
SK-MEL-28 melanoma = test system: SK-MEL-28 melanoma
OVCAR-3 ovarian = test system: OVCAR-3 ovarian
SR leukemia = test system: SR leukemia
KM12 colon = test system: KM12 colon
SK-MEL-5 melanoma = test system: SK-MEL-5 melanoma
SN12C renal = test system: SN12C renal
EKVX NSCLC = test system: EKVX NSCLC
786-0 renal = test system: 786-0 renal
UACC-257 melanoma = test system: UACC-257 melanoma
MOLT-4 leukemia = test system: MOLT-4 leukemia
TK-10 renal = test system: TK-10 renal
LXFL 529 NSCLC = test system: LXFL 529 NSCLC
MALME-3M melanoma = test system: MALME-3M melanoma
IGROV1 ovarian = test system: IGROV1 ovarian
U251 CNS = test system: U251 CNS
RXF-631 renal = test system: RXF-631 renal
DMS 114 small cell lung = test system: DMS 114 small cell lung
OVCAR-5 ovarian = test system: OVCAR-5 ovarian
CCRF-CEM leukemia = test system: CCRF-CEM leukemia
HCT-15 colon = test system: HCT-15 colon
COLO 205 colon = test system: COLO 205 colon
SF-268 CNS = test system: SF-268 CNS
HCT-116 colon = test system: HCT-116 colon
HT29 colon = test system: HT29 colon
A498 renal = test system: A498 renal
CAKI-1 renal = test system: CAKI-1 renal
HL-60(TB) leukemia = test system: HL-60(TB) leukemia
DMS 273 small cell lung = test system: DMS 273 small cell lung
SNB-78 CNS = test system: SNB-78 CNS
NCI-H226 lung = test system: NCI-H226 lung
SK-MEL-2 melanoma = test system: SK-MEL-2 melanoma

Structure (SMILES): CCC[CH2][Sn]1([CH2]CCC)[O]C(=O)c2cccc(C)c2[O]1
- GI50 (SF-295 CNS): 1560 nM
- TGI (SF-295 CNS): 2990 nM
- GI50 (HCC-2998 colon): 1270 nM
- TGI (HCC-2998 colon): 2600 nM
- GI50 (KM20L2 colon): 1350 nM
- TGI (KM20L2 colon): 2640 nM
- GI50 (NCI-H460 lung): 2480 nM
- TGI (NCI-H460 lung): 5750 nM
- GI50 (RPMI-8226 leukemia): 250 nM
- TGI (RPMI-8226 leukemia): 810 nM
- GI50 (UACC-62 melanoma): 581 nM
- TGI (UACC-62 melanoma): 1820 nM
- GI50 (HOP-92 NSCLC): 1280 nM
- TGI (HOP-92 NSCLC): 2580 nM
- GI50 (SW-620 colon): 200 nM
- TGI (SW-620 colon): 548 nM
- GI50 (SNB-19 CNS): 363 nM
- TGI (SNB-19 CNS): 1360 nM
- GI50 (NCI-H522 lung): 119 nM
- TGI (NCI-H522 lung): 250 nM
- GI50 (HOP-18 NSCLC): 1080 nM
- TGI (HOP-18 NSCLC): 2270 nM
- GI50 (HOP-62 NSCLC): 2340 nM
- TGI (HOP-62 NSCLC): 4160 nM
- GI50 (OVCAR-4 ovarian): 1330 nM
- TGI (OVCAR-4 ovarian): 2610 nM
- GI50 (RXF 393 renal): 290 nM
- TGI (RXF 393 renal): 1020 nM
- GI50 (ACHN renal): 551 nM
- TGI (ACHN renal): 1740 nM
- GI50 (K-562 leukemia): 259 nM
- TGI (K-562 leukemia): 897 nM
- GI50 (M14 melanoma): 577 nM
- TGI (M14 melanoma): 1880 nM
- GI50 (SF-539 CNS): 660 nM
- TGI (SF-539 CNS): 1910 nM
- GI50 (NCI-H23 lung): 649 nM
- TGI (NCI-H23 lung): 1980 nM
- GI50 (SNB-75 CNS): 239 nM
- TGI (SNB-75 CNS): 766 nM
- GI50 (LOX IMVI melanoma): 210 nM
- TGI (LOX IMVI melanoma): 448 nM
- GI50 (A549 NSCLC): 1460 nM
- TGI (A549 NSCLC): 2790 nM
- GI50 (M19-MEL melanoma): 477 nM
- TGI (M19-MEL melanoma): 1690 nM
- GI50 (SK-OV-3 ovarian): 1880 nM
- TGI (SK-OV-3 ovarian): 3400 nM
- GI50 (OVCAR-8 ovarian): 1040 nM
- TGI (OVCAR-8 ovarian): 2380 nM
- GI50 (DLD-1 colon): 722 nM
- TGI (DLD-1 colon): 2050 nM
- GI50 (UO-31 renal): 1030 nM
- TGI (UO-31 renal): 2220 nM
- GI50 (SK-MEL-28 melanoma): 454 nM
- TGI (SK-MEL-28 melanoma): 1510 nM
- GI50 (OVCAR-3 ovarian): 1110 nM
- TGI (OVCAR-3 ovarian): 2320 nM
- GI50 (SR leukemia): 401 nM
- TGI (SR leukemia): 1820 nM
- GI50 (KM12 colon): 1080 nM
- TGI (KM12 colon): 2360 nM
- GI50 (SK-MEL-5 melanoma): 1090 nM
- TGI (SK-MEL-5 melanoma): 2330 nM
- GI50 (SN12C renal): 598 nM
- TGI (SN12C renal): 1840 nM
- GI50 (EKVX NSCLC): 1420 nM
- TGI (EKVX NSCLC): 2770 nM
- GI50 (786-0 renal): 1070 nM
- TGI (786-0 renal): 2260 nM
- GI50 (UACC-257 melanoma): 626 nM
- TGI (UACC-257 melanoma): 1950 nM
- GI50 (MOLT-4 leukemia): 218 nM
- TGI (MOLT-4 leukemia): 699 nM
- GI50 (TK-10 renal): 356 nM
- TGI (TK-10 renal): 911 nM
- GI50 (LXFL 529 NSCLC): 141 nM
- TGI (LXFL 529 NSCLC): 440 nM
- GI50 (MALME-3M melanoma): 441 nM
- TGI (MALME-3M melanoma): 1550 nM
- GI50 (IGROV1 ovarian): 1350 nM
- TGI (IGROV1 ovarian): 2720 nM
- GI50 (U251 CNS): 421 nM
- TGI (U251 CNS): 1440 nM
- GI50 (RXF-631 renal): 240 nM
- TGI (RXF-631 renal): 535 nM
- GI50 (DMS 114 small cell lung): 231 nM
- TGI (DMS 114 small cell lung): 565 nM
- GI50 (OVCAR-5 ovarian): 1780 nM
- TGI (OVCAR-5 ovarian): 3160 nM
- GI50 (CCRF-CEM leukemia): 260 nM
- TGI (CCRF-CEM leukemia): 924 nM
- GI50 (HCT-15 colon): 592 nM
- TGI (HCT-15 colon): 2700 nM
- GI50 (COLO 205 colon): 188 nM
- TGI (COLO 205 colon): 1540 nM
- GI50 (SF-268 CNS): 349 nM
- TGI (SF-268 CNS): 1460 nM
- GI50 (HCT-116 colon): 1250 nM
- TGI (HCT-116 colon): 2500 nM
- GI50 (HT29 colon): 1500 nM
- TGI (HT29 colon): 2970 nM
- GI50 (A498 renal): 317 nM
- TGI (A498 renal): 867 nM
- GI50 (CAKI-1 renal): 258 nM
- TGI (CAKI-1 renal): 852 nM
- GI50 (HL-60(TB) leukemia): 297 nM
- TGI (HL-60(TB) leukemia): 1370 nM

Structure (SMILES): COc1ccc2c(CCNC(C)=O)c(C(C)=O)[nH]c2c1
- TGI (SF-295 CNS): > 100000 nM
- TGI (HCC-2998 colon): > 100000 nM
- TGI (KM20L2 colon): > 100000 nM
- TGI (NCI-H460 lung): > 100000 nM
- TGI (RPMI-8226 leukemia): > 100000 nM
- TGI (UACC-62 melanoma): > 100000 nM
- TGI (SW-620 colon): > 100000 nM
- TGI (SNB-19 CNS): > 100000 nM
- TGI (NCI-H522 lung): > 100000 nM
- TGI (HOP-62 NSCLC): > 100000 nM
- TGI (OVCAR-4 ovarian): > 100000 nM
- TGI (RXF 393 renal): > 100000 nM
- TGI (ACHN renal): > 100000 nM
- TGI (K-562 leukemia): > 100000 nM
- TGI (M14 melanoma): > 100000 nM
- TGI (SF-539 CNS): > 100000 nM
- TGI (SNB-75 CNS): > 100000 nM
- TGI (LOX IMVI melanoma): > 100000 nM
- TGI (A549 NSCLC): > 100000 nM
- TGI (OVCAR-8 ovarian): > 100000 nM
- TGI (DLD-1 colon): > 100000 nM
- TGI (DMS 273 small cell lung): > 100000 nM
- TGI (UO-31 renal): > 100000 nM
- TGI (SK-MEL-28 melanoma): > 100000 nM
- TGI (OVCAR-3 ovarian): > 100000 nM
- TGI (SNB-78 CNS): > 100000 nM
- TGI (SR leukemia): > 100000 nM
- TGI (KM12 colon): > 100000 nM
- TGI (NCI-H226 lung): > 100000 nM
- TGI (SN12C renal): > 100000 nM
- TGI (EKVX NSCLC): > 100000 nM
- TGI (786-0 renal): > 100000 nM
- TGI (UACC-257 melanoma): > 100000 nM
- TGI (MOLT-4 leukemia): > 100000 nM
- TGI (TK-10 renal): > 100000 nM
- TGI (LXFL 529 NSCLC): > 100000 nM
- TGI (IGROV1 ovarian): > 100000 nM
- TGI (U251 CNS): > 100000 nM
- TGI (RXF-631 renal): > 100000 nM
- TGI (DMS 114 small cell lung): > 100000 nM
- TGI (OVCAR-5 ovarian): > 100000 nM
- TGI (CCRF-CEM leukemia): > 100000 nM
- TGI (HCT-15 colon): > 100000 nM
- TGI (COLO 205 colon): > 100000 nM
- TGI (SF-268 CNS): > 100000 nM
- TGI (HCT-116 colon): > 100000 nM
- TGI (HT29 colon): > 100000 nM
- TGI (A498 renal): > 100000 nM
- TGI (CAKI-1 renal): > 100000 nM
- TGI (SK-MEL-2 melanoma): > 100000 nM
- TGI (HL-60(TB) leukemia): > 100000 nM
